In paper PMC8697972, “New Auranofin Analogs with Antibacterial Properties against Burkholderia Clinical Isolates” (Antibiotics, 2021):
Converted amounts (≈) assume the structure as drawn. Read-outs that look alike come from different tables or passages of the source.

Test system: B. cenocepacia K56-2
Test: Multistep resistance by serial passaging at 0.5× MIC
Type: cell-based, Burkholderia cenocepacia
Conditions: for MIC: Burkholderia cenocepacia; for change of MIC on serial passaging: 24 days of passaging at 0.5× MIC
[1] = K562, 0 h, day 0 of serial passaging, read-out: starting MIC in multistep resistance assay
[2] = K562, after 12–16 days of passaging at 0.5× MIC, read-out: MIC reached on serial passaging

SMILES: C[C@H]1c2cccc(O)c2C(=O)C2=C(O)[C@]3(O)C(=O)C(C(N)=O)=C(O)[C@@H](N(C)C)[C@@H]3[C@@H](O)[C@@H]21 [DOX, doxycycline, reference compound]
- MIC [1]: 4 µg/mL (≈ 9 µM)
- MIC [2]: 256 µg/mL (≈ 576 µM)

SMILES: C[C@@H](O)[C@H]1C(=O)N2C(C(=O)O)=C(S[C@@H]3CN[C@H](C(=O)N(C)C)C3)[C@H](C)[C@H]12 [MEM, meropenem, reference compound]
- MIC [1]: 16 µg/mL (≈ 41.7 µM)
- MIC [2]: 256 µg/mL (≈ 668 µM)

SMILES: C[PH](C)(C)[Au][S]CCO [MS-40, 2-mercaptoethanolatotrimethylphosphine gold(I)]
- change of MIC on serial passaging: no apparent increase

SMILES: CC(O)C[S][Au-][P+](C)(C)C (stereo not drawn) [MS-40S]
- change of MIC on serial passaging: no apparent increase
